From patent US20210338728A1, “METHODS AND COMPOSITIONS FOR THE EXPANSION AND USE OF ALLOGENEIC GAMMA/DELTA-T CELLS” (Phosphogam, Inc., priority 2018, published 2021)

Tested on: γδ-T cells
Experiment: Ex vivo expansion of human γδ-T cells from healthy donor PBMC with C-HDMPP and IL-2, flow cytometry at day 21
Type: cell-based
Excerpt: Peripheral blood mononuclear cells (PBMC) were isolated from peripheral blood obtained by venipuncture from a healthy individual. Fresh blood was collected using standard aseptic technique. PBMC were isolated utilizing a standard density gradient centrifugation method. PBMC were washed in PBS, then resuspended in complete RPMI-1640 supplemented with 10% characterized fetal bovine serum and PCN+streptomycin.
Cell cultures were initiated by seeding PBMC into tissue culture flasks to which recombinant human IL-2 was added. γδ-T cell expansion was initiated by the addition of C-HDMPP. Cultures were maintained at 37° C., 5% CO2 in incubators situated within a BSL2 containment environment. Fresh media was added as needed to keep cell concentration at approximately 1×10^6 cells/ml. Human IL-2 was added every 5 days. Cultures were maintained for 21 days at which time they were analyzed by flow cytometry. […] At 100 nM C-HDMPP the cultures were ≥96% pure γδ-T cells with viability ≥96%.

[1] = 100 nM C-HDMPP, 21 days of culture with IL-2, flow cytometry

C/C(=C\CCP(=O)(O)OP(=O)(O)O)CO [C-HDMPP]
purity of γδ-T cells in the cultures [1]: ≥ 96%
viability of the cultures [1]: ≥ 96%
γδ-T cell growth (expansion) versus concentration (nanomolar concentrations, 21 days, FIG. 1): can be titrated to promote optimal γδ-T cell growth while avoiding overstimulation
